Test results published in patent publication US20210045385A1, “PYRIDAZINONE-SUBSTITUTED KETOXIMES AS HERBICIDES” (FMC Corporation, priority 2018, published 2021).

Experiments:
Type in all cases: in vivo
[1] = system: barnyardgrass (Echinochloa crus-galli); assay: Test B flooded paddy test, visual plant response rating; conditions: 250 g ai/ha, Flood, applied to paddy water, 2-leaf stage, evaluated after 13 to 15 days
Procedure, shortened: (§1)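 Greenhouse paddy conditions applied: two-leaf plants, a 3 cm flood above the soil surface maintained throughout, and compound added to the water rather than the foliage. Plants were judged visually against controls at 13 to 15 days.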

rice (Oryza sativa) = assay: as above; conditions: 250 g ai/ha, Flood, applied to paddy water, 2-leaf stage, evaluated after 13 to 15 days
Procedure, shortened: as §1

[2] = system: sedge, umbrella (small-flower umbrella sedge, Cyperus difformis); assay: as above; conditions: 250 g ai/ha, Flood, applied to paddy water, 2-leaf stage, evaluated after 13 to 15 days
Procedure, shortened: as §1

[3] = system: ducksalad (Heteranhera limosa); assay: as above; conditions: 250 g ai/ha, Flood, applied to paddy water, 2-leaf stage, evaluated after 13 to 15 days
Procedure, shortened: as §1

[4] = system: pigweed (Amaranthus retroflexus); assay: Test A preemergence, visual plant response rating; conditions: approx. 10 days
Procedure, shortened: (§2)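 Greenhouse pot test in loam–sand soil mix: compound in a surfactant-containing non-phytotoxic solvent applied preemergence (directed soil spray) or postemergence (one- to two-leaf plants, 2–10 cm). Injury scored visually after ~10 days, 0–100.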

[5] = system: ragweed (common ragweed, Ambrosia elatior); assay: Test A preemergence, visual plant response rating; conditions: approx. 10 days
Procedure, shortened: as §2

[6] = system: barnyardgrass (Echinochloa crus-galli); assay: Test A preemergence, visual plant response rating; conditions: approx. 10 days
Procedure, shortened: as §2

kochia (Kochia scoparia) [7] = assay: Test A preemergence, visual plant response rating; conditions: approx. 10 days
Procedure, shortened: as §2

[8] = system: foxtail, green (green foxtail, Setaria viridis); assay: Test A preemergence, visual plant response rating; conditions: approx. 10 days
Procedure, shortened: as §2

[9] = system: Italian ryegrass (Lolium multiflorum); assay: Test A preemergence, visual plant response rating; conditions: approx. 10 days
Procedure, shortened: as §2

corn (Zea mays) = assay: Test A postemergence, visual plant response rating; conditions: for Corn plant response rating (0 to 100 scale): 500 g ai/ha, postemergence, 0 is no effect, 100 is complete control; for Corn plant response rating: Postemergence, 125 g ai/ha, 0 to 100 scale (0 no effect, 100 complete control)
Procedure, shortened: as §2

[10] = system: wheat (Triticum aestivum); assay: Test A postemergence, visual plant response rating; conditions: for Wheat plant response rating (0 to 100 scale): 500 g ai/ha, postemergence, 0 is no effect, 100 is complete control; for Wheat plant response rating: Postemergence, 125 g ai/ha, 0 to 100 scale (0 no effect, 100 complete control)
Procedure, shortened: as §2

[11] = system: pigweed (Amaranthus retroflexus); assay: Test A postemergence, visual plant response rating; conditions: for Pigweed plant response rating (0 to 100 scale): 500 g ai/ha, postemergence, 0 is no effect, 100 is complete control; for Pigweed plant response rating: Postemergence, 125 g ai/ha, 0 to 100 scale (0 no effect, 100 complete control)
Procedure, shortened: as §2

[12] = system: ragweed (common ragweed, Ambrosia elatior); assay: Test A postemergence, visual plant response rating; conditions: for Ragweed plant response rating (0 to 100 scale): 500 g ai/ha, postemergence, 0 is no effect, 100 is complete control; for Ragweed plant response rating: Postemergence, 125 g ai/ha, 0 to 100 scale (0 no effect, 100 complete control)
Procedure, shortened: as §2

[13] = system: galium (catchweed bedstraw, Galium aparine); assay: Test A postemergence, visual plant response rating
Procedure, shortened: as §2

[14] = system: barnyardgrass (Echinochloa crus-galli); assay: Test A postemergence, visual plant response rating; conditions: for Barnyardgrass plant response rating (0 to 100 scale): 500 g ai/ha, postemergence, 0 is no effect, 100 is complete control; for Barnyardgrass plant response rating: Postemergence, 125 g ai/ha, 0 to 100 scale (0 no effect, 100 complete control)
Procedure, shortened: as §2

kochia (Kochia scoparia) [15] = assay: Test A postemergence, visual plant response rating; conditions: for Kochia plant response rating (0 to 100 scale): 500 g ai/ha, postemergence, 0 is no effect, 100 is complete control; for Kochia plant response rating: Postemergence, 125 g ai/ha, 0 to 100 scale (0 no effect, 100 complete control)
Procedure, shortened: as §2

[16] = system: blackgrass (Alopecurus myosuroides); assay: Test A postemergence, visual plant response rating; conditions: for Blackgrass plant response rating (0 to 100 scale): 500 g ai/ha, postemergence, 0 is no effect, 100 is complete control; for Blackgrass plant response rating: Postemergence, 125 g ai/ha, 0 to 100 scale (0 no effect, 100 complete control)
Procedure, shortened: as §2

[17] = system: foxtail, green (green foxtail, Setaria viridis); assay: Test A postemergence, visual plant response rating; conditions: for Foxtail, Green plant response rating (0 to 100 scale): 500 g ai/ha, postemergence, 0 is no effect, 100 is complete control; for Foxtail, Green plant response rating: Postemergence, 125 g ai/ha, 0 to 100 scale (0 no effect, 100 complete control)
Procedure, shortened: as §2

[18] = system: Italian ryegrass (Lolium multiflorum); assay: Test A postemergence, visual plant response rating; conditions: for Ryegrass, Italian plant response rating (0 to 100 scale): 500 g ai/ha, postemergence, 0 is no effect, 100 is complete control; for Ryegrass, Italian plant response rating: Postemergence, 125 g ai/ha, 0 to 100 scale (0 no effect, 100 complete control)
Procedure, shortened: as §2

SMILES | Plant response rating, Barnyardgrass (0 to 100 scale, 0 is no effect, 100 is complete control) [1] | Plant response rating, Rice (0 to 100 scale, 0 is no effect, 100 is complete control) (rice (Oryza sativa)) | Plant response rating, Sedge, Umbrella (0 to 100 scale, 0 is no effect, 100 is complete control) [2] | Plant response rating, Ducksalad (0 to 100 scale, 0 is no effect, 100 is complete control) [3] | Pigweed plant response rating (0 to 100 scale) ([4]; 125 g ai/ha Preemergence) | Pigweed plant response rating (0 to 100 scale) ([4]; 500 g ai/ha Preemergence) | Ragweed plant response rating (0 to 100 scale) ([5]; 125 g ai/ha Preemergence) | Ragweed plant response rating (0 to 100 scale) ([5]; 500 g ai/ha Preemergence) | Barnyardgrass plant response rating (0 to 100 scale) ([6]; 125 g ai/ha Preemergence) | Barnyardgrass plant response rating (0 to 100 scale) ([6]; 500 g ai/ha Preemergence) | Kochia plant response rating (0 to 100 scale) (kochia (Kochia scoparia) [7]; 125 g ai/ha Preemergence) | Kochia plant response rating (0 to 100 scale) (kochia (Kochia scoparia) [7]; 500 g ai/ha Preemergence) | Foxtail, Green plant response rating (0 to 100 scale) ([8]; 125 g ai/ha Preemergence) | Foxtail, Green plant response rating (0 to 100 scale) ([8]; 500 g ai/ha Preemergence) | Ryegrass, Italian plant response rating (0 to 100 scale) ([9]; 125 g ai/ha Preemergence) | Ryegrass, Italian plant response rating (0 to 100 scale) ([9]; 500 g ai/ha Preemergence) | Corn plant response rating (0 to 100 scale) (corn (Zea mays)) | Corn plant response rating (corn (Zea mays)) | Wheat plant response rating (0 to 100 scale) [10] | Wheat plant response rating [10] | further results
CON=C(c1ccccc1Cl)c1c(O)c(C)nn(C)c1=O (stereo in doubt) [Compound 29] | 0 | 0 | 0 | 0 | 0 | 20 | 30 | 90 | 30 | 50 | 0 | 10 | 30 | 50 | 20 | 70 | 10 | 0 | 20 | 20 | Pigweed plant response rating (0 to 100 scale) [11]: 50; Pigweed plant response rating [11]: 40; Ragweed plant response rating (0 to 100 scale) [12]: 70; Ragweed plant response rating [12]: 60; Galium plant response rating (0 to 100 scale) ([13]; 500 g ai/ha, postemergence, 0 is no effect, 100 is complete control): 80; Galium plant response rating ([13]; Postemergence, 125 g ai/ha, 0 to 100 scale (0 no effect, 100 complete control)): 70; Barnyardgrass plant response rating (0 to 100 scale) [14]: 20; Barnyardgrass plant response rating [14]: 0; Kochia plant response rating (0 to 100 scale) (kochia (Kochia scoparia) [15]): 30; Kochia plant response rating (kochia (Kochia scoparia) [15]): 10; Blackgrass plant response rating (0 to 100 scale) [16]: 70; Blackgrass plant response rating [16]: 20; Foxtail, Green plant response rating (0 to 100 scale) [17]: 20; Foxtail, Green plant response rating [17]: 0; Ryegrass, Italian plant response rating (0 to 100 scale) [18]: 90; Ryegrass, Italian plant response rating [18]: 30
CO/N=C(\c1cccc(Cl)c1)c1c(O)c(C)nn(C)c1=O [Compound 10, 4-[(E)-(3-chlorophenyl)(methoxyimino)methyl]-5-hydroxy-2,6-dimethyl-3(2H)-pyridazinone] | 0 | 0 | 0 | 0 | 20 | 100 | 70 | 90 | 0 | 10 | 30 | 90 | 20 | 20 | 30 | 90 | 0 | 0 | 20 | 0 | Pigweed plant response rating (0 to 100 scale) [11]: 60; Pigweed plant response rating [11]: 20; Ragweed plant response rating (0 to 100 scale) [12]: 100; Ragweed plant response rating [12]: 90; Barnyardgrass plant response rating (0 to 100 scale) [14]: 10; Barnyardgrass plant response rating [14]: 0; Kochia plant response rating (0 to 100 scale) (kochia (Kochia scoparia) [15]): 80; Kochia plant response rating (kochia (Kochia scoparia) [15]): 70; Blackgrass plant response rating (0 to 100 scale) [16]: 30; Blackgrass plant response rating [16]: 10; Foxtail, Green plant response rating (0 to 100 scale) [17]: 20; Foxtail, Green plant response rating [17]: 0; Ryegrass, Italian plant response rating (0 to 100 scale) [18]: 90; Ryegrass, Italian plant response rating [18]: 60
CO/N=C(/c1cccc(Cl)c1)c1c(O)c(C)nn(C)c1=O [Compound 11, 4-[(Z)-(3-chlorophenyl)(methoxyimino)methyl]-5-hydroxy-2,6-dimethyl-3(2H)-pyridazinone] | 0 | 0 | 0 | 0 | 40 | 100 | 50 | 50 | 0 | 40 | 10 | 80 | 0 | 70 | 60 | 80 | 10 | 0 | 10 | 0 | Pigweed plant response rating (0 to 100 scale) [11]: 80; Pigweed plant response rating [11]: 40; Ragweed plant response rating (0 to 100 scale) [12]: 100; Ragweed plant response rating [12]: 80; Barnyardgrass plant response rating (0 to 100 scale) [14]: 10; Barnyardgrass plant response rating [14]: 10; Kochia plant response rating (0 to 100 scale) (kochia (Kochia scoparia) [15]): 80; Kochia plant response rating (kochia (Kochia scoparia) [15]): 70; Blackgrass plant response rating (0 to 100 scale) [16]: 70; Blackgrass plant response rating [16]: 30; Foxtail, Green plant response rating (0 to 100 scale) [17]: 40; Foxtail, Green plant response rating [17]: 10; Ryegrass, Italian plant response rating (0 to 100 scale) [18]: 80; Ryegrass, Italian plant response rating [18]: 60
